We go through two molecules from article PMC4577959 (Journal of the American Chemical Society, 2015).

The target in assay [1] is N2B peptide (NHR2-binding motif of E-proteins) (Homo sapiens, UniProt Q99081). To be noted: ratio of Kd values, FP assay with flu-N2B.
Assay [2] concerns the target fluorescein-labeled N2B peptide (NHR2-binding motif of E-proteins). The assay is described as follows: fluorescence polarisation.

Broadly, the Kd is the equilibrium constant for the complex coming apart. Low readings indicate a tighter complex, high ones a looser complex.

Consider `CC[C@H](C)[C@@H]1NC(=O)[C@H](CO)NC(=O)[C@H](CCCNC(=N)N)NC(=O)[C@H](Cc2c[nH]c3ccccc23)NC(=O)[C@@H](NC(=O)[C@H](CCC(=O)O)NC(C)=O)CSSC[C@@H](C(=O)N[C@@H](CCCNC(=N)N)C(N)=O)NC(=O)[C@H](CC(C)C)NC(=O)[C@H](CCC(=O)O)NC(=O)[C@@H](NC(=O)[C@H](CC(C)C)NC(=O)[C@H](Cc2c[nH]cn2)NC(=O)[C@H](Cc2c[nH]c3ccccc23)NC(=O)[C@H](CC(C)C)NC(=O)[C@H](CCC(=O)O)NC(C)=O)CCCCn2cc(nn2)COCc2cn(nn2)CCCC[C@@H](C(N)=O)NC(=O)[C@H](CC(C)C)NC(=O)[C@H](C(C)C)NC(=O)[C@H](CCCNC(=N)N)NC1=O` [CHD^DS-NHR2-3], for which the “enhanced affinity versus the native NHR2 coiled coil” value in assay [1] is given as 5 fold.
“GST-NHR2(482–551), native Nervy homology two (NHR2) coiled coil domain of AML1-ETO (domain or fragment)” yielded a dissociation constant (Kd) in assay [2] of 356 µM.
